System: HSCs in CD34+-selected normal human bone marrow cells
Assay: PSCK-RIFS tissue stem cell counting and cell kinetics determination, serial culture of BM-CD34+ cells with stem cell-active agents
Type: cell-based
Conditions: for Committed Progenitor Cells CC Time / Stem Cells Asym CC Time / Stem Cells SSR Rate, RS / Stem Cells Sym CC Time / Stem Cells Initial Fraction: BM-CD34+ serial culture, agent supplemented at all times; for Committed Progenitor Cells CC Time / Stem Cells Asym CC Time / Stem Cells SSR Rate, RS / Stem Cells Sym CC Time: mean of n=5; for Stem Cells Initial Fraction: mean of n=5 PSCK-RIFS determinations
Source text: Strain WI-38 pre-senescent human lung cells were purchased from the American Type Culture Collection (Manassas, Va., USA; ATCC #CCL-75; passage 15). Expanded human liver stem cell strain SACK-XS 12(3) was purchased from Kerafast (Boston, Mass., USA; #EJS002). CD34+-selected normal human bone marrow cells were purchased from the ATCC (#PCS-800-012). CD34+-selected human umbilical cord blood cells were purchased from STEMCELL Technologies, Inc. (Cat#70008; Cambridge, Mass.).
Expanded human liver stem cell strain SACK-XS 12(3) cells were cultured in the supplier's recommended culture medium without inclusion of xanthosine. CD34+-selected normal human bone marrow cells were cultured in StemSpan™ SFEM II medium (STEMCELL Technologies, Inc., Cambridge, Mass., USA; #09655) supplemented with StemSpan™ CD34+ Expansion Supplement (STEMCELL Technologies, Inc., #02691). SACK-XS 12(3) serial cultures were initiated in 6-well plates with 325,000 viable cells. CD34+ cell serial cultures were initiated as 24-well suspension cultures with 65,000 viable cells. For both cell types, ⅓ of total cells were transferred to a new culture well every 96±4 hour interval. Tested agents were supplemented at all times during the culture period.
Based on the determined stem cell symmetric self-renewal frequency (RS), in the early studies presented herein a correction was applied to account for this effect. The correction is determined by the following Equation 1:
NSo corrected=NS1st interval/(RSe^kt+RA−RDS) (Equation 1)
In Equation 1, NS1st interval=NS peak value determined from the initial interval of PSCK; t=the time to the first interval NS peak in the respective simulation; k=ln 2/GTS, the mean generation time for symmetrically self-renewing stem cells; RS, RA, and RDS are mean cell kinetics factors determined by the originating PSCK-RIFS analysis (See EXAMPLE 4). The mean of 10 independent PSCK NS simulations was used for correction. Equation 1 was applied to determine the initial stem cell fraction whenever a significant RS value was found.
The simulation confidence level was estimated from the root mean squared error of the comparison of simulated cumulative population doubling (CPD) data to experimental CPD data. Student's t-test (2-tailed) was used to calculate p-values for confidence for cell kinetics factors determined by the PSCK-RIFS software (See also EXAMPLE 4) with respect to 0.0 and their 95% confidence intervals. Student's t-test (2-tailed) was also used to calculate p-values for confidence for differences in the value of cell kinetics factors derived under different culture conditions.
FIGS. 1 and 11 outline the application of the PSCK-RIFS software. A tissue cell preparation of interest is first counted (including viable cell determination; NC in Table 5) and used to initiate serial cultures, typically in triplicate.
At an experimenter defined interval (SPLI in Table 5), cultures are counted—including viable cell count—and a constant fraction of the cells or number of the cells is transferred to a new culture dish of the same type (FIG. 11). The PSCK software is designed to be versatile for accommodating different formats for the culture time period and/or the number of cells transferred. The total cell count data are transformed into plots of cumulative population doublings (CPD); and the viable cell fraction is used to estimate the dead cell fractions for transient cells (RDT in Table 5) and terminal cells (RDTM in Table 5), which are similarly very abundant during most of the culture period.
FIG. 1 depicts the various inputs that are used by the PSCK software to calculate CPD curve simulations for the period defined by the experimental CPD data. Using the cellular model illustrated in FIG. 1, the software inputs measured values (“m” superscripted in FIG. 1) and discovered factors (“d” superscripted in FIG. 1) obtained from the RIFS software. An important aspect of the PSCK-RIFS method is that there is no underlying mathematical algorithm. […]

SMILES | Committed Progenitor Cells CC Time | Stem Cells Asym CC Time | Stem Cells SSR Rate, RS | Stem Cells Sym CC Time | Stem Cells Initial Fraction | change in determined HSC number (within the first four days of culture) | change in stem cell fraction of supplemented cultures (BM-CD34+ cultures) | increase in HSC number (after only 4 days of culture) | RS, rate of symmetric self-renewal, of HSC divisions (increase from undetectable, p=0.037)
O=NN(CCCl)C(=O)NCCCl [BCNU, bis-chloroethylnitrosourea] | 6.4 h (NS) | 7.6 (NS) h | 0.0 (NS) | 8.2 h (NS) | 1.3 × 10^−4 (0.001) | decrease | – | – | –
O=c1[nH]c(=O)c2ncn([C@@H]3O[C@H](CO)[C@@H](O)[C@H]3O)c2[nH]1 [Xanthosine, xanthosine] | 8.2 h (NS) | 6.6 h (NS) | 3.2 × 10^−3 (0.037) | 9.4 h (NS) | 3.5 × 10^−3 (0.001) | – | increases | 10 fold | 0.32%
